According to BindingDB's records for doi:10.1016/0960-894X(95)00059-3 (1995):

Legend:
[1] = Inhibitory activity against HIV-1 RT with poly.rC-oligo.dG template primer
[2] = molecular target: Reverse transcriptase (Human immunodeficiency virus 2); experiment: Inhibitory activity against HIV-2 reverse transcriptase

Structure (SMILES) | IC50 [1] | IC50 [2]
O=S(=O)(c1ccccc1)c1c(-c2nc3c([nH]2)CCCC3)[nH]c2ccc(Cl)cc12 [2-(3-Benzenesulfonyl-5-chloro-1H-indol-2-yl)-4,5,6,7-tetrahydro-1H-benzoimidazole] | 8.1 nM | 
O=S(=O)(c1ccccc1)c1c(C2=NCCCN2)[nH]c2ccc(Cl)cc12 [3-Benzenesulfonyl-5-chloro-2-(1,4,5,6-tetrahydro-pyrimidin-2-yl)-1H-indole] | 2290 nM | 
CCc1nc(-c2[nH]c3ccc(Cl)cc3c2S(=O)(=O)c2ccccc2)[nH]c1CC [3-Benzenesulfonyl-5-chloro-2-(4,5-diethyl-1H-imidazol-2-yl)-1H-indole] | 10 nM | 
O=S(=O)(c1ccccc1)c1c(C2=NCCS2)[nH]c2ccc(Cl)cc12 [3-Benzenesulfonyl-5-chloro-2-(4,5-dihydro-thiazol-2-yl)-1H-indole] | 17 nM | > 300000 nM
Cc1nc(-c2[nH]c3ccc(Cl)cc3c2S(=O)(=O)c2ccccc2)[nH]c1C [3-Benzenesulfonyl-5-chloro-2-(4,5-dimethyl-1H-imidazol-2-yl)-1H-indole] | 5.1 nM | > 300000 nM
CC1(C)CN=C(c2[nH]c3ccc(Cl)cc3c2S(=O)(=O)c2ccccc2)N1 [3-Benzenesulfonyl-5-chloro-2-(5,5-dimethyl-4,5-dihydro-1H-imidazol-2-yl)-1H-indole] | 50 nM | 
O=S(=O)(c1ccccc1)c1c(-n2ccnc2)[nH]c2ccc(Cl)cc12 [3-Benzenesulfonyl-5-chloro-2-imidazol-1-yl-1H-indole] | 2380 nM | 
O=S(=O)(c1ccccc1)c1c(C2=N[C@H]3CCCC[C@@H]3N2)[nH]c2ccc(Cl)cc12 [(3aS,7aS)-2-(3-Benzenesulfonyl-5-chloro-1H-indol-2-yl)-3a,4,5,6,7,7a-hexahydro-1H-benzoimidazole] | 29 nM | 
